{
  "source": "patent US12083094B2",
  "about": "“Cannabinoid composition and methods of treatment using the same” (CANNPAL ANIMAL THERAPEUTICS LIMITED, priority 2018, dated 2024)",
  "assay": "Blood sampling for THC and CBD plasma concentration after single oral dosing",
  "details": "oral",
  "method": "Two compositions, IVP1 and IVP2, were administered in varying amounts in the study.\nDosage volumes were calculated prior to Day 0, to provide the target dosage in mg/kg bodyweight based on actual dog bodyweights and IVP active ingredient composition based on the Certificates of Analysis.\nBlood samples of approximately 5 mL were collected at each drug concentration sampling time-point from each animal using 22-gauge needles and 5 mL syringes.\nThe data points from Table 4 and Table 5 were also plotted and these graphs are set out in FIGS. 1-16.",
  "key": {"[1]": {"details": "dog, plasma, CBD concentration in blood plasma, individual dogs 1-4, 0.12 mg/kg CBD + 0.24 mg/kg THC oral once"}, "[2]": {"details": "dog, plasma, CBD concentration in blood plasma, individual dogs 5-8, 0.24 mg/kg CBD + 0.12 mg/kg THC oral once"}, "[3]": {"details": "dog, plasma, CBD concentration in blood plasma, mean of dogs 1-4, 0.12 mg/kg CBD + 0.24 mg/kg THC oral once"}, "[4]": {"details": "dog, plasma, CBD concentration in blood plasma, mean of dogs 5-8, 0.24 mg/kg CBD + 0.12 mg/kg THC oral once"}},
  "data": [
    {"smiles": "C=C(C)[C@@H]1CCC(C)=C[C@H]1c1c(O)cc(CCCCC)cc1O", "note": "[CBD, Cannabidiol]", "values": [
      {"measurement": "AUC of CBD after 0.12 mg/kg THC/0.24 mg/kg CBD relative to AUC of CBD after 0.24 mg/kg THC/0.12 mg/kg CBD", "setting": "canine", "value": "more than twice"},
      {"measurement": "concentration at 0 h", "setting": "[1]", "value": 0, "unit": "µg/mL"},
      {"measurement": "concentration at 1.5 h", "setting": "[1]", "value": 7.5, "unit": "ng/mL"},
      {"measurement": "concentration at 2 h", "setting": "[1]", "value": 6.27, "unit": "ng/mL"},
      {"measurement": "concentration at 32 h", "setting": "[1]", "value": 0, "unit": "ng/mL"},
      {"measurement": "concentration at 0 h", "setting": "[2]", "value": 0, "unit": "µg/mL"},
      {"measurement": "concentration at 2 h", "setting": "[2]", "value": 23.7, "unit": "ng/mL"},
      {"measurement": "concentration at 3 h", "setting": "[2]", "value": 9.21, "unit": "ng/mL"},
      {"measurement": "concentration at 4 h", "setting": "[2]", "value": 5.28, "unit": "ng/mL"},
      {"measurement": "concentration at 12 h", "setting": "[2]", "value": 0.88, "unit": "ng/mL"},
      {"measurement": "concentration at 16 h", "setting": "[2]", "value": 0.55, "unit": "ng/mL"},
      {"measurement": "concentration at 24 h", "setting": "[2]", "value": 0.38, "unit": "ng/mL"},
      {"measurement": "concentration at 32 h", "setting": "[2]", "value": 0.28, "unit": "ng/mL"},
      {"measurement": "concentration at 72 h", "setting": "dog, plasma, CBD concentration in blood plasma, individual dogs 5-8, 0.24 mg/kg CBD + 0.12 mg/kg THC oral once, 72 h", "value": 0, "unit": "µg/mL"},
      {"measurement": "concentration at 0 h", "setting": "[3]", "value": 0, "unit": "µg/mL"},
      {"measurement": "concentration at 0.67 h", "setting": "[3]", "value": 12.3, "unit": "ng/mL"},
      {"measurement": "concentration at 1 h", "setting": "[3]", "value": 11.2, "unit": "ng/mL"},
      {"measurement": "concentration at 1.5 h", "setting": "[3]", "value": 8.6, "unit": "ng/mL"},
      {"measurement": "concentration at 2 h", "setting": "[3]", "value": 6.89, "unit": "ng/mL"},
      {"measurement": "concentration at 3 h", "setting": "[3]", "value": 4.31, "unit": "ng/mL"},
      {"measurement": "concentration at 4 h", "setting": "[3]", "value": 2.9, "unit": "ng/mL"},
      {"measurement": "concentration at 6 h", "setting": "[3]", "value": 2.02, "unit": "ng/mL"},
      {"measurement": "concentration at 8 h", "setting": "[3]", "value": 1.3, "unit": "ng/mL"},
      {"measurement": "concentration at 12 h", "setting": "[3]", "value": 0.41, "unit": "ng/mL"},
      {"measurement": "concentration at 16 h", "setting": "[3]", "value": 0.16, "unit": "ng/mL"},
      {"measurement": "concentration at 24 h", "setting": "[3]", "value": 0.11, "unit": "ng/mL"},
      {"measurement": "concentration at 32 h", "setting": "[3]", "value": 0, "unit": "ng/mL"},
      {"measurement": "concentration at 0 h", "setting": "[4]", "value": 0, "unit": "µg/mL"},
      {"measurement": "concentration at 0.67 h", "setting": "[4]", "value": 30.1, "unit": "ng/mL"},
      {"measurement": "concentration at 1 h", "setting": "[4]", "value": 35.8, "unit": "ng/mL"},
      {"measurement": "concentration at 1.5 h", "setting": "[4]", "value": 26.9, "unit": "ng/mL"},
      {"measurement": "concentration at 2 h", "setting": "[4]", "value": 17.9, "unit": "ng/mL"},
      {"measurement": "concentration at 3 h", "setting": "[4]", "value": 7.5, "unit": "ng/mL"},
      {"measurement": "concentration at 4 h", "setting": "[4]", "value": 4.53, "unit": "ng/mL"},
      {"measurement": "concentration at 6 h", "setting": "[4]", "value": 3.31, "unit": "ng/mL"},
      {"measurement": "concentration at 8 h", "setting": "[4]", "value": 2.79, "unit": "ng/mL"},
      {"measurement": "concentration at 12 h", "setting": "[4]", "value": 0.77, "unit": "ng/mL"},
      {"measurement": "concentration at 16 h", "setting": "[4]", "value": 0.54, "unit": "ng/mL"},
      {"measurement": "concentration at 24 h", "setting": "[4]", "value": 0.35, "unit": "ng/mL"}
    ]}
  ]
}
